According to US4965259A, “Dioxazocine derivatives compositions and methods containing them having antidepressive, spasmolytic, anticonvulsive, and antiarrhythmic properties” (EGIS Gyogyszergyar, priority 1987, dated 1990):
Several values for one entry are separate records, joined by “and”; a condition that tells them apart may be missing. Equal entries are not always repeated. Structures can show the parent of a compound that is named as a salt. Where two headings read alike, the source gives them in different places.

Columns and labels:
[1] = Acute toxicity on white mice (LD50 p.o.); parameters: species or system strain CFLP, both sexes; settings: mouse, in vivo, po
Protocol: Acute toxicity of the compounds was tested on white mice of both sexes from the strain CFLP in groups consisting of 10 animals weighing 18 to 22 g. The compounds to be tested were administered perorally in a volume of 20 ml/kg. […] The animals could consume tap water and standard mouse feed ad libitum. The LD50 -values were determined according to Litchfield and Wilcoxon [J. Pharmacol. Exp. Ther., 96, 99 (1949)].

[2] = tested on: sleep induced with hexobarbital; assay: Narcosis potentiating activity (sleep induced with hexobarbital on mice); format: in vivo; settings: for Therapeutical index LD50/ED50: p.o.; for ED50: Mus musculus, po, 1 h before hexobarbital 40 mg/kg i.v., positive = sleep exceeding control mean by factor 2,5
Protocol: Groups consisting of 6 mice each were treated with the compound to be examined, perorally. After one hour, hexobarbital [5-(1-cyclohexenyl)-1,5-dimethylbarbituric acid] was injected, intravenously, at a dosage of 40 mg/kg. The control group was treated only with hexobarbital to provoke sleep. The duration of sleep was recorded. If the duration of sleep of an animal exceeded that of the mean value of the control group by a factor of 2,5, it was considered as a positive reaction. From the data referring to the animals indicating a positive reaction, the ED50 -value was calculated. From the values of LD50 and ED50, the therapeutical index was determined for each compound tested.

mice = assay: Motility inhibiting activity (Dews equipment); format: in vivo; settings: for ED50: Mus musculus, po, 0.5 h, interruptions of infrared beam within 30 minutes; for Therapeutical index LD50/ED50: motility inhibition, p.o.
Protocol: The tests were performed according to the method of Borsy et al. [Arch. Int. Pharmacolyn., 124, 1-2 (1960)]. […] Then the test animals were placed in a Dews equipment. In this equipment the number of interruptions of infrared beam within 30 minutes was counted. The percentual deviation from the number of interruptions in the case of the control group was determined in each group, then the ED50 -values and therapeutical indexes were calculated.

[3] = tested on: tremor induced by tremorine; assay: Inhibition of tremor induced by tremorine on mice; format: in vivo; settings: for ED50: Mus musculus, po, 1 h before tremorine 20 mg/kg i.p., evaluated 45 minutes after tremorine; for Therapeutical index LD50/ED50: tremorine tremor, p.o.
Protocol: The tests were carried out according to Everett [Science, 124, 79 (1956)]. Tremor was induced by tremorine [1,1'-(2-butynylene)-dipyrrolidine] administered intraperitoneally at a dosage of 20 mg/kg. The compounds to be examined were given perorally to the animals one hour prior to the administration of tremorine, and the tremor developed was evaluated 45 minutes after the administration of tremorine.

[4] = tested on: tonic-extensoric spasms on the hind limbs (pentetrazole); assay: Spasmolytic action on mice (pentetrazole-induced tonic-extensoric spasms); format: in vivo, white mice; settings: for ED50: Mus musculus, po; for Therapeutical index LD50/ED50: pentetrazole spasm
Protocol: The tests were carried out according to the method of Banzinger and Hane which was adapted to white mice [Arch. Int. Pharmacolyn., 167, 245-249 (1959)]. The test animals were treated perorally with the compounds to be tested. One hour after the administration pentetrazole (6,7,8,9,-tetrahydro-5H-tetrazolozepine) was given intraperitoneally in a dosis of 125 mg/kg. The tonic-extensoric spasms on the hind limbs were registered.

[5] = tested on: electroshock provoked by electric current; assay: Anticonvulsive activity on mice (inhibition of electroshock); format: in vivo; settings: for ED50: Mus musculus, po
Protocol: The tests were carried out according to the method of Swinyard et al. [I. Pharmacol. Exp. Ther., 106, 319-330 (1952)] which method is based on the inhibition of electroshock provoked by electric current on mice. The compounds to be tested were administered perorally. One hour later electroshocks were given by using corneal electrodes. The frequency of the electroshocks was 50 Hz, the current intensity 45 mA and the duration 0.4 sec. The full inhibition of the tonic-extensoric spasm on the hind limbs was considered as the criterium of the anticonvulsive activity. As reference compound phenobarbital, trimetadone and traboxopin were used.

tetrabenazine ptosis = assay: Antagonism of tetrabenazine ptosis on mice; settings: for ED50: Mus musculus, po; for Therapeutical index LD50/ED50: tetrabenazine ptosis, mice, p.o.
Protocol: Groups consisting of 10 mice each were treated, perorally, with different doses of the compounds to be tested. The control group was treated only with the corresponding carrier. After 30 minutes, tetrabenazine [3-isobutyl-9,10-dimethoxy-1,2,3,4,6,7-hexahydrobenzo[a]quinolizine-2-one]was administered intraperitoneally at a dosage of 50 mg/kg. The number of animals having closed palpebral fissure was determined in each group after 30, 60, 90 and 120 minutes. Then, the mean value of ptosis was calculated in each group, and the deviation from that of the control group (i.e. the inhibition) was expressed in percentage. From the data obtained, the ED50 -value and the therapeutical index were determined for each novel compound tested as well as for amitryptiline [5-(3-dimethylaminopropylidine)-10,11-dihydro-5H-dibenzo[a,d]cycloheptene hydrochloride] and traboxopin [2-chloro-12(3-dimethylamino-2-methylpropyl)-12H-dibenzo[d,g][1,3,6]dioxazocine] employed for comparison.

[6] = tested on: arrhythmia provoked by aconitine; assay: Antiarrhythmic activity on rats (arrhythmia provoked by aconitine); format: in vivo; settings: p.o., 4 mg/kg, 30 minutes prior to aconitine 75 μg/kg i.v.
Protocol: The antiarrhythmic activity of the novel compounds was examined by influencing the arrhythmia provoked by aconitine on rats weighing 160 to 200 g according to a modified method of Marmo et al. [Arzneim.-Forsch., 20, 12 (1970)]. The animals were anaesthetized by the administration of 1.2 g/kg of ethyl urethane, intraperitoneally. Aconitine was given at a dosage of 75 μg/kg, intravenously. The compounds to be tested were administered perorally 30 minutes prior to the treatment with aconitine. In the test, lidocaine and quinidine was employed for comparison.

[7] = mice, p.o., 1 h before pentetrazole 125 mg/kg i.p., read-out: ED50
[8] = mice, p.o., 1 h before electroshock (50 Hz, 45 mA, 0.4 sec), full inhibition of tonic-extensoric spasm, read-out: ED50
[9] = white mice, p.o., 7 days observation, Litchfield and Wilcoxon, read-out: LD50 p.o.

Structure (SMILES): CC(CN(C)C)CN1c2ccccc2OCOc2ccc(Cl)cc21 (centres unmarked) [traboxopin, 2-chloro-12-(3-dimethylamino-2-methylpropyl)-12H-dibenzo[d,g][1,3,6]dioxazocine]
- LD50 at 168 h ([1]; reference compounds, printed in Table II, read-out: LD50): 270 mg/kg
- Therapeutical index LD50/ED50 ([2]; narcosis potentiation): 10.8
- ED50 (mice): 25 mg/kg
- Therapeutical index LD50/ED50 (mice): 10.8
- ED50 [3]: 25 mg/kg
- Therapeutical index LD50/ED50 [3]: 10.8
- ED50 [4, 7]: 32 mg/kg
- Therapeutical index LD50/ED50 ([4]; mice, p.o.): 8.4
- ED50 [5, 8]: 54 mg/kg
- Therapeutical index LD50/ED50 ([5]; electroshock, mice, p.o.): 5.0

Structure (SMILES): CN(C)CCC=C1c2ccccc2CCc2ccccc21 [amitryptiline, 5-(3-dimethylaminopropylidine)-10,11-dihydro-5H-dibenzo[a,d]cycloheptene hydrochloride]
- ED50 (tetrabenazine ptosis): 12 mg/kg
- Therapeutical index LD50/ED50 (tetrabenazine ptosis): 18.7

Structure (SMILES): CC(C)NCCCN1c2ccccc2OCOc2ccc(Cl)cc21 [Example 2, 2-Chloro-12-(3-isopropylaminopropyl)-12H-dibenzo[d,g][1,3,6]dioxazocine maleate]
- LD50 at 168 h [1, 9]: 700 mg/kg
- ED50 [3]: 5.2 mg/kg
- Therapeutical index LD50/ED50 [3]: 134.6

Structure (SMILES): CN1C(=O)OC(C)(C)C1=O [trimetadione, 3,5,5-trimethyl-oxazolidine-2,4-dione]
- ED50 [4, 7]: 400 mg/kg
- Therapeutical index LD50/ED50 ([4]; mice, p.o.): 5.5
- ED50 [5, 8]: 490 mg/kg

Structure (SMILES): CNC1=Nc2ccc(Cl)cc2C(c2ccccc2)=[N+]([O-])C1 [chlordiazepoxide, 7-chloro-2-methylamino-5-phenyl-3H-1,4-benzodiazepine-4-oxide]
- ED50 [2]: 10 mg/kg
- Therapeutical index LD50/ED50 ([2]; narcosis potentiation): 62.0
- ED50 (mice): 60 mg/kg
- Therapeutical index LD50/ED50 (mice): 10.3

Structure (SMILES): OC(CCN1CCCCC1)(c1ccccc1)C1CCCCC1 (centres unmarked) [trihexyphenidyl]
- ED50 [3]: 15 mg/kg
- Therapeutical index LD50/ED50 [3]: 24.3

Structure (SMILES): CCCC(C)(COC(N)=O)COC(N)=O [meprobamate, 2-methyl-2-propylpropandiol-1,3-dicarbamate]
- ED50 [2]: 260 mg/kg
- Therapeutical index LD50/ED50 ([2]; narcosis potentiation): 4.2
- ED50 (mice): 270 mg/kg
- Therapeutical index LD50/ED50 (mice): 4.1

Structure (SMILES): C=C[C@H]1C[N@@]2CC[C@H]1C[C@@H]2[C@@H](O)c1ccnc2ccc(OC)cc12 [quinidine]
- Inhibition in percentage [6]: 27.3%

Structure (SMILES): CNCCCN1c2ccccc2OCOc2ccc(Cl)cc21 [Example 4, 2-Chloro-12-(3-methylaminopropyl)-12H-dibenzo[d,g][1,3,6]dioxazocine maleate]
- LD50 at 168 h [1, 9]: 720 mg/kg
- ED50 [4, 7]: 25 mg/kg
- Therapeutical index LD50/ED50 ([4]; mice, p.o.): 28.8
- ED50 [5]: 40 mg/kg
- Therapeutical index LD50/ED50 ([5]; electroshock, mice, p.o.): 19
- Therapeutic index compared with that of the reference compounds ([5]; electroshock, mice, statement on Table VII): 3-5 fold
- Inhibition in percentage ([6]; maleate): 90.9% and 90%
- ED50 (tetrabenazine ptosis): 7.3 mg/kg
- Therapeutical index LD50/ED50 (tetrabenazine ptosis): 98.6

Structure (SMILES): CCN(CC)CC(=O)Nc1c(C)cccc1C [lidocaine]
- Inhibition in percentage [6]: 23.4%

Structure (SMILES): CNCC(C)CN1c2ccccc2OCOc2ccc(Cl)cc21 (centres unmarked) [Example 3, 2-Chloro-12-(3-methylamino-2-methylpropyl)-12H-dibenzo[d,g][1,3,6]dioxazocine hydrochloride]
- LD50 at 168 h [1, 9]: 500 mg/kg
- ED50 [2]: 2.4 mg/kg
- Therapeutical index LD50/ED50 ([2]; narcosis potentiation): 208
- Therapeutical index compared with the known reference compounds ([2]; narcosis potentiation, statement on Table II): several times higher than that of the known reference compounds
- ED50 (mice): 27 mg/kg
- Therapeutical index LD50/ED50 (mice): 18.50
- ED50 [3]: 6.4 mg/kg
- Therapeutical index LD50/ED50 [3]: 78.1
- ED50 [4, 7]: 19 mg/kg
- Therapeutical index LD50/ED50 ([4]; mice, p.o.): 26.3

Structure (SMILES): CCC1(c2ccccc2)C(=O)NC(=O)NC1=O [phenobarbital, 5-ethyl-5-phenylbarbituric acid]
- ED50 [4]: 19 mg/kg
- Therapeutical index LD50/ED50 ([4]; mice, p.o.): 8.8
- ED50 [5]: 24.5 mg/kg
- Therapeutical index LD50/ED50 ([5]; electroshock, mice, p.o.): 6.8
